The values that follow come from patent US11207301B2, “Sphingosine 1 phosphate receptor agonists for neuroprotection” (RECEPTOS LLC, priority 2017, dated 2021).

Usually EC50 stands for the concentration that produces a half-maximal response. A low value points to an effect from little substance.

In assay [1] the test system is ERK phosphorylation in primary mouse astrocytes. The assay can be described thus: ERK phosphorylation in primary mouse cortical astrocytes (AlphaLISA SureFire Ultra). Format: cell-based. Particulars: Astrocyte, 10 min, 10-minute exposure. Here is the method:
(§1) For the experiments using mouse and human primary astrocytes, ten-point concentration-response curves (90 nM-4.57 pM or 30 nM-1.52 pM) were generated for AKT and/or ERK phosphorylation in primary human and mouse cortical astrocytic cultures in response to a 10-minute treatment with ozanimod, Compound 3, Compound 1, or FTY720-P. AKT and ERK phosphorylation were quantified using AlphaLISA SureFire Ultra Assay kits and the EnVision Plate Reader. AKT and ERK phosphorylation within treated astrocytes were expressed as the mean change in signal intensity compared to the dimethyl sulfoxide (DMSO) vehicle and the half maximal effective concentration (EC50) was determined using non-linear regression.
Timed pregnant (E16) C57BL/6J female mice arrive to the test facility on a weekly basis and were housed and cared for according to appropriate protocols for this model. Primary mouse cortical astrocytes are harvested from P0-P2 pups. The newly born animals were deeply anesthetized on ice, decapitated, and the brains were rapidly removed and stored in ice-cold NbAstro media (BrainBits, LLC). Cells were dissociated from freshly dissected cortices by mechanical disruption in the presence of trypsin and DNase. Cells were put into a PDL coated T75 tissue culture flask containing 16 mL NbAstro Media and incubated at 37° C. 5% CO2. Once the mouse astrocytes had reached confluency in the T75 flask, they were detached using TripLE detachment reagent, pelleted at 300×g, expanded into two T225 PDL coated tissue culture flasks containing 40 mL of NbAstro and incubated at 37° C. 5% CO2. […]
Cell lysis and detection of pERK were performed according to the PerkinElmer AlphaLISA SureFire Ultra p-ERK1/2 (Thr202/TYR 204) assay protocol. […] The plates were read on the EnVision Plate Reader to assess the pERK levels.
(§2) The AKT and ERK phosphorylation data, collected by a Perkin Elmer EnVision Microplate Reader, was analyzed by non-linear regression (GraphPad Prism, version 7.03) to determine the EC50 values.

In assay [2] the test system is AKT phosphorylation in primary mouse astrocytes. In words: AKT phosphorylation in primary mouse cortical astrocytes (AlphaLISA SureFire Ultra). Particulars: Astrocyte, 10 min, 10-minute exposure, mean of n=3. Format: cell-based. The procedure:
as §1
Timed pregnant (E16) C57BL/6J female mice arrive to the test facility on a weekly basis and were housed and cared for according to appropriate protocols for this model. Primary mouse cortical astrocytes are harvested from P0-P2 pups. The newly born animals were deeply anesthetized on ice, decapitated, and the brains were rapidly removed and stored in ice-cold NbAstro media (BrainBits, LLC). Cells were dissociated from freshly dissected cortices by mechanical disruption in the presence of trypsin and DNase. Cells were put into a PDL coated T75 tissue culture flask containing 16 mL NbAstro Media and incubated at 37° C. 5% CO2. Once the mouse astrocytes had reached confluency in the T75 flask, they were detached using TripLE detachment reagent, pelleted at 300×g, expanded into two T225 PDL coated tissue culture flasks containing 40 mL of NbAstro and incubated at 37° C. 5% CO2. Once the astrocytes reached confluency in the T225 flasks they were detached using TrypLE detachment reagent, pelleted at 300×g, plated into PDL coated 96-well plates at a density of 10,000 cells per well in 200 μL NbAstro and incubated at 37° C. 5% CO2. Half of the media was replenished every 3-4 days. After 5-7 days of incubation, the P2 mouse astrocyte plates were utilized for the pERK and pAKT assays.
Cell lysis and detection of pAKT were performed according to the PerkinElmer AlphaLISA SureFire Ultra pAKT1/2/3 ([…]) assay protocol. Astrocytes were lysed in the 96-well plate following a 10 minute incubation with compounds with shaking at room temperature (RT). The astrocytic lysates (10 μL/well) were transferred into a 384-well OptiPlate. As specified by the assay protocol, an acceptor bead mix and a donor bead mix (5 μL/well for each) were added to the plate under subdued light. […] The plates were read on the EnVision Plate Reader to assess the pAKT levels.
as §2

Assay [3] has as its system cuprizone-induced mouse model of demyelination. In words: Cuprizone-induced mouse model of demyelination / neuroprotection. Format: in vivo, C57BL/6 mice. An excerpt:
(§3) The effect of a S1P receptor agonist on spinal cord axial demyelination or reduction in axonal breaks can be assessed by measuring concentration of neurofilament light chain (NfL) in the plasma. NfL is released to the plasma following axonal injury and degeneration. Histological examination of axons with antineurofilament H non-phosphorylated mouse antibody SMI-32 can also be used to assess axonal demyelination or breaks. NfH is phosphorylated in healthy axons and unphosphorylated in damaged axons. In addition, the effects of ozanimod on the CNS were examined in vivo using the cuprizone-induced mouse model of demyelination and in vitro in primary rodent astrocytes. Efficacy of ozanimod or compound (2-R) was examined in the cuprizone-induced mouse model of neuroprotection. C57BL/6 mice were treated with cuprizone (0.3% weight/weight orally) and rapamycin (10 mg/kg intraperitoneally daily) to demyelinate axons in the brain and concurrently treated with ozanimod (0.1, 0.3, or 1 mg/kg) or compound (2-S) (1 mg/kg) by daily oral gavage to investigate its neuroprotective activity. Neuroprotection was assessed through examination of axonal pathology in the corpus callosum using SMI-32 (antineurofilament H non-phosphorylated mouse monoclonal antibody) staining, functional assessment through kinematic gait analysis and the plasma biomarker neurofilament light chain (NfL). Further, direct activity of ozanimod was examined in resting and activated primary rodent astrocytes in vitro.

In assay [4] the test system is primary rodent astrocytes. In words: Primary rodent astrocytes in vitro, resting and LPS-activated. Format: cell-based. The procedure: as §3, with “In” for “The effect of a S1P receptor agonist on spinal cord axial demyelination or reduction in axonal breaks can be assessed by measuring concentration of neurofilament light chain (NfL) in the plasma. NfL is released to the plasma following axonal injury and degeneration. Histological examination of axons with antineurofilament H non-phosphorylated mouse antibody SMI-32 can also be used to assess axonal demyelination or breaks. NfH is phosphorylated in healthy axons and unphosphorylated in damaged axons. In”

As to `CC(C)Oc1ccc(-c2nc(-c3cccc4c3CCC4=O)no2)cc1C#N` [Compound 1, 2-isopropoxy-5-(3-(1-oxo-2,3-dihydro-1H-inden-4-yl)-1,2,4-oxadiazol-5-yl)benzonitrile], the results for the EC50 in assay [1] and in assay [2] were 0.87 nM and 0.49 nM, respectively.
As to `CC(C)Oc1ccc(-c2nc(-c3cccc4c3CC[C@@H]4NCCO)no2)cc1C#N` [Ozanimod], the EC50 in assay [1] came to 2.42 nM; in assay [2] it was 0.9 nM. Besides, in assay [3] (0.1, 0.3, or 1 mg/kg vs vehicle (FIG. 3)), the “overall kinematic gait score” value was “significantly improved overall kinematic gait score”. Besides, the kinematic gait entry in assay [3] (cuprizone-induced demyelinated mice vs vehicle, 1 mg/kg (FIG. 2)) was “improved kinematic gait”. Besides, the “neuroprotection, reduction in swollen and transected axons” value in assay [3] (cuprizone-induced mouse model) is “neuroprotective”. Besides, in assay [4] (induced by LPS activation), the “release of pro-inflammatory cytokines, including IL-1β, TNFα, IL-6, and KC/GRO” value is “attenuated the release of pro-inflammatory cytokines”. Besides, the “ERK and AKT signaling pathways” value in assay [4] (primary rodent astrocytes) is “directly activated ERK and AKT signaling pathways”.
